What all share (test): stopped-flow CO2 hydration
Holding throughout (assay type): biochemical

Experiment [1] deals with T1, hCA I (Homo sapiens, UniProt P00915).
T1 construct: gene CA1
The text has this: stopped-flow CO2 hydration on hCA I

Experiment [2] concerns the target T2, hCA VA (Homo sapiens, UniProt P35218).
T2 construct: gene CA5A
The text has this: stopped-flow CO2 hydration on hCA VA

In experiment [3] the target is T3, hCA II (Homo sapiens, UniProt P00918).
T3 construct: gene CA2
An excerpt: stopped-flow CO2 hydration on hCA II

In experiment [4] the target is T4, hCA XII (Homo sapiens, UniProt O43570).
T4 construct: gene CA12
An excerpt:
stopped-flow CO2 hydration on hCA XII

The values that follow come from paper PMC6968503, “Synthesis and human carbonic anhydrase I, II, VA, and XII inhibition with novel amino acid–sulphonamide conjugates” (Journal of Enzyme Inhibition and Medicinal Chemistry, 2020).

Read-outs that look alike come from different tables or passages of the source.

T2 sequence (P35218 39-305): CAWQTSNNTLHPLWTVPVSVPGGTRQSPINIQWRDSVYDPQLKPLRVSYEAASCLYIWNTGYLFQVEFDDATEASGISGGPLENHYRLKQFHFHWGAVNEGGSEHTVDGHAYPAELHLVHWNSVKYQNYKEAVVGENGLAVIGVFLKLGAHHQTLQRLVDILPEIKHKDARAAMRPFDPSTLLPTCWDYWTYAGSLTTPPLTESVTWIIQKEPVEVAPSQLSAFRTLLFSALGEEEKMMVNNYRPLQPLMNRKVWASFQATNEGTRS
T4 sequence (O43570 25-354): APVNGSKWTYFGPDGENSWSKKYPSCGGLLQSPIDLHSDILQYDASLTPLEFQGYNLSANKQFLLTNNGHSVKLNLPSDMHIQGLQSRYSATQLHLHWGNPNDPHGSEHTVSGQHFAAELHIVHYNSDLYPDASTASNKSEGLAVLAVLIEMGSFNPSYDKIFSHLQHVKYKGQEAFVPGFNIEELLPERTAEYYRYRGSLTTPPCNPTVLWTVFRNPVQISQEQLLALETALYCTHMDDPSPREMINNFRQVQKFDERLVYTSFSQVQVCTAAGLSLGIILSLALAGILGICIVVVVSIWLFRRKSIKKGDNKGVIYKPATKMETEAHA
T1 sequence (P00915 2-261): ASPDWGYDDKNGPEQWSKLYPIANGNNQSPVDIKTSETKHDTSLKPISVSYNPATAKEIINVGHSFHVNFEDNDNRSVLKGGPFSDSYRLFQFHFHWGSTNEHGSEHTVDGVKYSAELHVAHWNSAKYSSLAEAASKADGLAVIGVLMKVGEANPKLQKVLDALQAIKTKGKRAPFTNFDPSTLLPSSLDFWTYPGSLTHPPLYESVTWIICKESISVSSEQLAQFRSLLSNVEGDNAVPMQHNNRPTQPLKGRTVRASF

The Ki is the equilibrium dissociation constant of an inhibitor or competing ligand from its target. Turning to `CC(C)C[C@@H](NC(=O)OCc1ccccc1)C(=O)NCCc1ccc(S(N)(=O)=O)cc1` [compound 1, Benzyl (R)-(4-methyl-1-oxo-1-((4-sulphamoylphenethyl)amino)pentan-2-yl)carbamate], the Ki came to 49.5 nM in experiment [1]; 58.7 nM in experiment [2] (CO2 […], […] HEPES pH […] Na2SO4, […] min preincubation, room temperature); 8.3 nM in experiment [3]; 27.4 nM in experiment [4].
Consider `CSCC[C@@H](NC(=O)OCc1ccccc1)C(=O)NCCc1ccc(S(N)(=O)=O)cc1` [compound 2, Benzyl (R)-(4-(methylthio)-1-oxo-1-((4-sulphamoylphenethyl)amino)butan-2-yl)carbamate], for which the Ki in experiment [2] was 63.4 nM; in experiment [3], 1.7 nM; in experiment [4], 53.9 nM.
In the case of `CC(C)[C@@H](NC(=O)OCc1ccccc1)C(=O)NCCc1ccc(S(N)(=O)=O)cc1` [compound 3, Benzyl (R)-(3-methyl-1-oxo-1-((4-sulphamoylphenethyl)amino)butan-2-yl)carbamate], the values for the Ki in experiment [1], in experiment [2] and in experiment [4] were 51.6 nM, 60.3 nM and 7.2 nM, respectively.
For `NS(=O)(=O)c1ccc(CCNC(=O)[C@@H](CSc2ccccc2)NC(=O)OCc2ccccc2)cc1` [compound 4, Benzyl (S)-(1-oxo-3-(phenylthio)-1-((4-sulphamoylphenethyl)amino)propan-2-yl)carbamate], the Ki in experiment [1] was found to be 352 nM; in experiment [2], 63.3 nM; in experiment [4], 8.4 nM.
On to `C[C@@H](NC(=O)OC(C)(C)C)C(=O)NCCc1ccc(S(N)(=O)=O)cc1` [compound 5, tert-Butyl (R)-(1-oxo-1-((4-sulphamoylphenethyl)amino)propan-2-yl)carbamate], for which the inhibition constant (Ki) is 73.5 nM in experiment [1], 68.7 nM in experiment [2], 6.6 nM in experiment [3] and 45.6 nM in experiment [4].
For `NS(=O)(=O)c1ccc(CCNC(=O)CNC(=O)OCC2c3ccccc3-c3ccccc32)cc1` [compound 6, (9H-fluoren-9-yl)methyl (2-oxo-2-((4-sulphamoylphenethyl)amino)ethyl)carbamate] the same measures were 36 nM, 67.9 nM, 6.4 nM and 8.2 nM.
In the same order, the values of `NS(=O)(=O)c1ccc(CCNC(=O)[C@H](Cc2ccccc2)NC(=O)OCC2c3ccccc3-c3ccccc32)cc1` [compound 7, (9H-fluoren-9-yl)methyl (S)-(1-oxo-3-phenyl-1-((4-sulphamoylphenethyl)amino)propan-2-yl)carbamate] are 697 nM, 3440 nM, 76.4 nM and 38.9 nM.
Turning to `NS(=O)(=O)c1ccc(CCNC(=O)[C@@H](Cc2c[nH]c3ccccc23)NC(=O)OCc2ccccc2)cc1` [compound 8, Benzyl (R)-(3-(1H-indol-3-yl)-1-oxo-1-((4-sulphamoylphenethyl)amino)propan-2-yl)carbamate], the Ki in experiment [1] turned out to be 528 nM; in experiment [2], 3010 nM; in experiment [3] it was 6.5 nM; in experiment [4], 5.5 nM.
Take `CSCC[C@H](NC(=O)OC(C)(C)C)C(=O)NCCc1ccc(S(N)(=O)=O)cc1` [compound 9, tert-Butyl (S)-(4-(methylthio)-1-oxo-1-((4-sulphamoylphenethyl)amino)butan-2-yl)carbamate]: the results for the inhibitory constant (Ki) in experiment [1], in experiment [2] and in experiment [4] were 4390 nM, 611 nM and 329 nM, respectively.
For `CC(C)[C@@H](NC(=O)OC(C)(C)C)C(=O)NCCc1ccc(S(N)(=O)=O)cc1` [compound 10, tert-Butyl (R)-(3-methyl-1-oxo-1-((4-sulphamoylphenethyl)amino)butan-2-yl)carbamate] the same measures were 2990 nM, 661 nM and 197 nM.
For `CC[C@@H](C)[C@@H](NC(=O)OC(C)(C)C)C(=O)NCCc1ccc(S(N)(=O)=O)cc1` [compound 11, tert-Butyl ((2R,3R)-3-methyl-1-oxo-1-((4-sulphamoylphenethyl)amino)pentan-2-yl)carbamate] the same measures were 349 nM, 3870 nM and 56.2 nM.
For `NS(=O)(=O)c1ccc(CCNC(=O)C[C@@H](NC(=O)OCc2ccccc2)C(=O)NCCc2ccc(S(N)(=O)=O)cc2)cc1` [compound 12, Benzyl (R)-(1,4-dioxo-1,4-bis((4-sulphamoylphenethyl)amino)butan-2-yl)carbamate], the inhibitory constant (Ki) in experiment [1] amounted to 689 nM; in experiment [2] it was 3140 nM; in experiment [3] it was 215 nM; in experiment [4] it was 24.4 nM.
As to `CC(C)C[C@@H](NC(=O)OCc1ccccc1)C(=O)NCc1ccc(S(N)(=O)=O)cc1` [compound 13, Benzyl (R)-(4-methyl-1-oxo-1-((4-sulphamoylbenzyl)amino)pentan-2-yl)carbamate], the Ki came out at 61.1 nM in experiment [1], 578 nM in experiment [2], 86.6 nM in experiment [3] and 39.8 nM in experiment [4].
For `CSCC[C@@H](NC(=O)OCc1ccccc1)C(=O)NCc1ccc(S(N)(=O)=O)cc1` [compound 14, Benzyl (R)-(4-(methylthio)-1-oxo-1-((4-sulphamoylbenzyl)amino)butan-2-yl)carbamate], the Ki in experiment [1] was found to be 9.3 nM; in experiment [2], 384 nM; in experiment [3], 8.9 nM; in experiment [4], 74.3 nM.
As to `CC(C)[C@@H](NC(=O)OCc1ccccc1)C(=O)NCc1ccc(S(N)(=O)=O)cc1` [compound 15, Benzyl (R)-(3-methyl-1-oxo-1-((4-sulphamoylbenzyl)amino)butan-2-yl)carbamate], the Ki was found to be 8.1 nM in experiment [1], 503 nM in experiment [2], 28.4 nM in experiment [3] and 67.7 nM in experiment [4].
For the compound `NS(=O)(=O)c1ccc(CNC(=O)[C@@H](CSc2ccccc2)NC(=O)OCc2ccccc2)cc1` [compound 16, Benzyl (S)-(1-oxo-3-(phenylthio)-1-((4-sulphamoylbenzyl)amino)propan-2-yl)carbamate], the inhibition constant Ki worked out at 764 nM in experiment [1], 3960 nM in experiment [2], 3.3 nM in experiment [3] and 37.1 nM in experiment [4].
With `CC(C)(C)OC(=O)NCC(=O)NCc1ccc(S(N)(=O)=O)cc1` [compound 17, tert-Butyl (2-oxo-2-((4-sulphamoylbenzyl)amino)ethyl)carbamate], the Ki stood at 3340 nM in experiment [1], 3650 nM in experiment [2], 6.8 nM in experiment [3] and 8.8 nM in experiment [4].
In the same order, the values of `C[C@@H](NC(=O)OC(C)(C)C)C(=O)NCc1ccc(S(N)(=O)=O)cc1` [compound 18, tert-Butyl (R)-(1-oxo-1-((4-sulphamoylbenzyl)amino)propan-2-yl)carbamate] are 3890 nM, 5360 nM, 6.8 nM and 20.6 nM.
For `CC(C)(C)OC(=O)N[C@H](Cc1ccccc1)C(=O)NCc1ccc(S(N)(=O)=O)cc1` [compound 19, tert-Butyl (R)-(1-oxo-3-phenyl-1-((4-sulphamoylbenzyl)amino)propan-2-yl)carbamate] the same measures were 3780 nM, 734 nM, 61.4 nM and 6.9 nM.
For `NS(=O)(=O)c1ccc(CNC(=O)[C@H](Cc2ccccc2)NC(=O)OCC2c3ccccc3-c3ccccc32)cc1` [compound 20, (9H-fluoren-9-yl)methyl (S)-(1-oxo-3-phenyl-1-((4-sulphamoylbenzyl)amino)propan-2-yl)carbamate] the same measures were 5170 nM, 6830 nM, 693 nM and 26.7 nM.
In the case of `CSCC[C@@H](NC(=O)OC(C)(C)C)C(=O)NCc1ccc(S(N)(=O)=O)cc1` [compound 21, tert-Butyl (R)-(4-(methylthio)-1-oxo-1-((4-sulphamoylbenzyl)amino)butan-2-yl)carbamate], the Ki in experiment [1] was determined as 5360 nM; in experiment [2], 4990 nM; in experiment [3] it was 316 nM; in experiment [4], 3.9 nM.
On to `CC(C)[C@@H](NC(=O)OC(C)(C)C)C(=O)NCc1ccc(S(N)(=O)=O)cc1` [compound 22, tert-Butyl (R)-(3-methyl-1-oxo-1-((4-sulphamoylbenzyl)amino)butan-2-yl)carbamate], for which the inhibition constant (Ki) in experiment [1] amounted to 753 nM; in experiment [2] it was 4780 nM; in experiment [3] it was 168 nM; in experiment [4] it was 90.1 nM.
For `NS(=O)(=O)c1ccc(CNC(=O)[C@@H](Cc2c[nH]c3ccccc23)NC(=O)OCc2ccccc2)cc1` [compound 23, Benzyl (R)-(3-(1H-indol-3-yl)-1-oxo-1-((4-sulphamoylbenzyl)amino)propan-2-yl)carbamate] the same measures were 305 nM, 401 nM, 0.9 nM and 78.1 nM.
Turning to `CC[C@@H](C)[C@@H](NC(=O)OC(C)(C)C)C(=O)NCc1ccc(S(N)(=O)=O)cc1` [compound 24, tert-Butyl ((2R,3R)-3-methyl-1-oxo-1-((4-sulphamoylbenzyl)amino)pentan-2-yl)carbamate], the Ki in experiment [1] is 178 nM; in experiment [2], 4580 nM; in experiment [3] it was 0.8 nM; in experiment [4], 50.3 nM.
